Assays:
HT-29 cells [1] = experiment: LC-MS of lysed cells after dosing with the nanocage-antibody complex; assay type: cell-based; conditions: delivered by the nanocage with anti-EGFR; cells washed prior to lysis
Method: HT-29 cells were grown in DMEM medium with 10% FBS overnight. Cells were then treated with the nanocage-antibody complex (100 μl) at 37° C. for different 48 h and 72 h. After incubation, the cells were washed 3× with cold PBS. Re-suspended cells were analysed by LC-MS (Agilent 6550), data were quantified using a 20 ppm window for Dox and PI based on a calibrated standard;
Purified protein and cell extract samples were analysed by LCMS on an Agilent 6550. LC separation was achieved using a 1290 Infinity system (Agilent, Santa Clara, Calif.) and a Vydac 214MS C4 column, 2.1×150 mm and […], (Grace, Columbia, Md.) at a temperature of 35° C. with a buffer flow rate of 0.2 ml/min. with a denaturing mobile phase: buffer A was 0.1% formic acid in water and buffer B was 0.1% formic acid in acetonitrile. Elution of components was achieved using a linear gradient from 3% to 40% buffer B over 18.5 min. On-line mass spectra were accumulated on a 6550 quadrupole time-of-flight instrument with a dual electrospray Jet Stream source (Agilent). Mass spectra were acquired of the m/z range of 100-1700 at a rate of 0.6 spectra per second. […]
Further evaluation of drug delivery was performed by mass spectrometry. Following the dosing procedure used above, cells were washed prior to lysis and drug presence measured by LC-MS (Agilent 6550). […]

HT-29 cells [2] = experiment: Phenotypic cell death assay using Vybrant cell staining and flow cytometry; assay type: cell-based; conditions: after 48 h, free drug alone, 5 μM
Method: HT-29 cells were trypsinised and cell viability was assessed using the Trypan blue exclusion assay—count cells treated with Trypan blue dye using a haemocytometer, and determine the volume of cell suspension that contains 5×10^5 live cells. Live cells (5×10^5) seeded into a 12-well plate with a final volume of 500 μL. This final 500 μL volume will consist of 5×10^5 cells+medium+drug-Au-ZZ-hFTN+anti-EGFR antibody (0.5-1 μg). The plate was incubated in a tissue culture incubator set at 37° C., 5% CO2, 95% humidity for 24 h or 48 h before the experiment was stopped. Uptake of drug-Au-ZZ-hFTN by cells was stopped by removing the 500 μL solution containing test or control compounds, trypsinising cells and pelleting cells in preparation for cytotoxicity assays, e.g. Vybrant cell apoptosis assay. […] Within 30 min after the incubation period, the stained cells were analysed by flow cytometry, using 488 nm excitation with green fluorescence emission for YOPRO R-1 (i.e., 530/30 bandpass) and red fluorescence emission for propidium iodide (i.e., 610/20 bandpass), gating on cells to exclude debris. […] The stained cell population will separate into three groups: live cells show a low level of green fluorescence, apoptotic cells show an incrementally higher level of green fluorescence, and dead cells show both red and green fluorescence. […]

MNK1.1 cells = experiment: Flow cytometry, antibody directed cell binding of GFP nanocage; assay type: cell-based, mouse
Method: (§1) Purified wt ZZ-GFP-hFTN (20 μg) was mixed with either anti-NK1.1 antibody (1 μg) or anti-EGFR antibody (1 μg) in 210 μl of PBS. For each assay, 50 μl of the nanocage-antibody was mixed with 1×10^6 cells of either HT29 or MNK1.1 in 100 μl. Cells were analysed an a BD Fortessa using the FITC channel (ex 488 nm; emm 530-30 nm) to observe GFP fluorescence. […] Nanocage antibody are shown with MNK1.1 cells (B) and HT29 cells (D);
(§2) Flow cytometry was performed on a BD Fortessa using the FITC channel to observe GFP (ex 488 nm; emm 530-30 nm; ToPro-3 was imaged in red channel (640 nm ex; 670/14 emission). Data was analysed using Flow-Jo software.
(§3) Ferritin fusions containing an N-terminal ZZ domain, in principle, should be able to bind to IgG isotype antibodies since the Z-domain is a synthetic derivative of an IgG binding domain from Staphylococcus aureus protein A. The inventors evaluated the specificity with which they can direct the targeting of the ferritin nanocage to specific cell types by direct antibody interactions. To establish a fluorescent basis for determining cell binding they used the GFP labelled wt ZZ-GFP-hFTN.

HT29 cells = experiment: as above; assay type: cell-based
Method: as §1, §2, §3

Molecule: COc1cccc2c1C(=O)c1c(O)c3c(c(O)c1C2=O)C[C@@](O)(C(=O)CO)C[C@@H]3O[C@H]1C[C@H](N)[C@H](O)[C@H](C)O1 [Dox, doxorubicin]
- drug presence in lysed cells by LC-MS (HT-29 cells [1]): present in the lysed cells

Molecule: CC[N+](C)(CC)CCC[n+]1c(-c2ccccc2)c2cc(N)ccc2c2ccc(N)cc21.[I-].[I-] [PI, propidium iodide]
- drug presence in lysed cells by LC-MS (HT-29 cells [1]): present in the lysed cells

Molecule: CC(=O)O[C@H]1C(=O)[C@@]2(C)[C@H]([C@H](OC(=O)c3ccccc3)[C@]3(O)C[C@H](OC(=O)[C@H](O)[C@@H](NC(=O)c4ccccc4)c4ccccc4)C(C)=C1C3(C)C)[C@]1(OC(C)=O)CO[C@@H]1C[C@@H]2O [Pac, Paclitaxel]
- cell death (HT-29 cells [2]): ~9%

Molecule: wt ZZ-GFP-hFTN: wild-type human heavy chain ferritin with N-terminal ZZ antibody binding domain and GFP, forms nanocage
- binding of the nanocage to cells (GFP fluorescence) (MNK1.1 cells; absence of antibody): no discernible background binding
- binding of the nanocage to cells (GFP fluorescence) (MNK1.1 cells; presence of anti-NK1.1 antibody): complete shift in the fluorescence of the population
- binding of the nanocage to cells (GFP fluorescence) (HT29 cells; absence of antibody): no discernible background binding
- binding of the nanocage to cells (GFP fluorescence) (HT29 cells; presence of anti-EGFR antibody): complete shift in the fluorescence of the population
